According to patent EP0059980A1, “Use of an antimicrobial preservative in ophtalmics and the care of contact lenses” (NATEC Institut für naturwissenschaftlich- technische …, priority 1981, dated 1982):
Converted amounts (≈) assume the structure as drawn. Where two headings read alike, the source gives them in different places.

What was measured:
[1] = system: Aspergillus fumigatus; assay: Minimal inhibitory concentration (MIC), turbidity method in peptone broth; type: cell-based
Description: (§1) Die antimikrobiellen Wirkungsspektren eines erfindungsgemäß vorgeschlagenen Wirkstoffes, nämlich des Laurinsäurecholinesterchlorids, und im Vergleich dazu von den homologen Essigsäure-, Capronsäure- und Palmitinsäurecholinesterchloriden sowie von den bekannten Konservierungsmitteln Adamantylcarbonsäurecholinesterchlorid und Chlor- 'hexidin-diacetat wurden durch Bestimmung der minimalen Hemmkonzentration nach der Trübungsmethode in Pepton-Nährlösung bei einem pH von 7,0 festgestellt. Diese Methode ist von K.H. Wallhäußer und H. Schmidt in "Sterilisation, Desinfektion, Konservierung, Chemotherapie", Stuttgart (1967), Seite 420-421 beschrieben. Die Ergebnisse sind in Tabelle 1 zusammengestellt.

[2] = system: Candida albicans ATCC 10231; assay: as above; type: cell-based
Description: as §1

[3] = system: E. coli ATCC 11229; assay: as above; type: cell-based; settings: Escherichia coli
Description: as §1

[4] = system: Fusorium oxysporum; assay: as above; type: cell-based
Description: as §1

[5] = system: Staphylococcus aureus ATCC 25923; assay: as above; type: cell-based
Description: as §1

[6] = system: Streptococcus pyogenes; assay: as above; type: cell-based
Description: as §1

[7] = system: Pseudomonas aeruginosa; assay: as above; type: cell-based; settings: Pepton-Nährlösung, pH 7,0
Description: as §1, with “Diese Methode ist von K.H. Wallhäußer und H. Schmidt in "Sterilisation, Desinfektion, Konservierung, Chemotherapie", Stuttgart (1967), Seite 420-421 beschrieben.” left out

[8] = system: Bacillus cereus ATCC 11778; assay: as above; type: cell-based
Description: as §1

[9] = system: Bacillus subtilis ATCC 6633; assay: as above; type: cell-based
Description: as §1

[10] = system: Enterobacter aerogenes; assay: as above; type: cell-based; settings: Klebsiella aerogenes
Description: as §1

[11] = system: Paecilomyces Ehrlich; assay: as above; type: cell-based
Description: as §1

[12] = system: Paecilomyces variati; assay: as above; type: cell-based
Description: as §1

[13] = system: Proteus vulgaris; assay: as above; type: cell-based
Description: as §1

[14] = system: Staphylococcus epidermis ATCC 12228; assay: as above; type: cell-based
Description: as §1

[15] = pancreatic juice
Description: (§3) Ferner wurde eine 1 %ige wäßrige Laurinsäurecholinesterchloridlösung in Gegenwart von Pankreassaft simulierten physiologischen Bedingungen (38°C) ausgesetzt und nach 1 Stunde und nach 24 Stunden Proben gezogen und auf entstandene freie Fettsäuren untersucht. Dazu wurden die Proben mit Petroläther extrahiert und im Extrakt ' die Fettsäuren mikroanalytisch bestimmt.

[16] = system: Pseudomonas fluorescens; assay: Minimal inhibitory concentration (MIC), turbidity method in peptone broth; type: cell-based; settings: Pepton-Nährlösung, pH 7,0
Description: as §1

[17] = Acute oral toxicity test; design: species or system Mäuse; settings: mouse, in vivo, black mice, mean (range in brackets), read-out: oraler LD 50-Wert
Description: Anhand des Laurinsäurecholinesterchlorids als Beispiel für die erfindungsgemäß verwendeten Laurinsäurecholinestersalze wurde ferner eine akute orale Toxizitätsprüfung durchgeführt, wobei schwarze Mäuse als Versuchstiere dienten. Dabei wurde gefunden, daß der orale LD 50-Wert im Mittel bei 3,15 (2,66 bis 3,74) g/kg Tiergewicht liegt.

[18] = system: Ratten; assay: Subacute oral toxicity test; type: in vivo; settings: rats, 20 and 50 mg per kg body weight
[19] = system: Albino-Meerschweinchen (Pirlbright white); assay: Direct skin irritation test, ointment applied daily for one week; type: in vivo; settings: 200 ppm in Vaseline ointment base, 12 guinea pigs, daily for one week on shorn flank
Description: (§2) Ferner wurde die Haut- und Schleimhautverträglichkeit von Laurinsäurecholinesterchlorid an Albino-Meerschweinchen aus einem leicht allergisierbaren Stamm (Pirlbright white) von 400 bis 700 g Gewicht und bei kleinwüchsigen Kaninchen von 1,5 bis 3 kg Gewicht geprüft. Die Tiere erhielten Standarddiät und Wasser nach Belieben. Die Raumtemperatur betrug etwa 20 °C, die Luftfeuchtigkeit etwa 50 %, die tägliche Belichtungsdauer 12 Stunden.
Die Prüfsubstanz wurde in einer Salbengrundlage aus Vaseline mit 200 ppm des Wirkstoffs auf direkte Hautreizung getestet. Bei 12 Meerschweinchen wurde die Präparation eine Woche lang täglich auf einem kurz geschorenen Bezirk an der Flanke aufgetragen und etwa 30 Sekunden eingerieben.

[20] = system: Albino-Meerschweinchen (Pirlbright white); assay: Skin sensitisation test (induction and provocation phase); type: in vivo; settings: 200 ppm in Vaseline; three weeks induction, 5 days pause, 3 days provocation; checked after 24 h, 2 and 3 days
Description: as §2
Daraufhin wurde bei den gleichen Tieren die lokale Anwendung der Prüfsubstanz auf drei Wochen ausgedehnt (Induktionsphase). Nach anschließender 5-tägiger Pause wurde die Prüfsubstanz an drei aufeinanderfolgenden Tagen auf einem nicht vorbehandelten kontralateralen kurzgeschorenen Kontrollbezirk eingerieben (Provokationsphase),.
Aufgrund dieser Versuche ergab sich kein Hinweis auf sensibilisierende Eigenschaften des Laurinsäurecholinesterchlorids.

[21] = system: Kaninchenauge; assay: Ocular irritation test according to Draize (mucous membrane tolerance); type: in vivo, Kaninchen; settings: 2.000 ppm in 0,9 % saline, 0,1 ml in conjunctival sac, eight rabbits
Description: as §2
Die Prüfung auf Schleimhautverträglichkeit wurde am Kaninchenauge vorgenommen. Die Prüfsubstanz wurde als Lösung von 2.000 ppm Laurinsäurecholinesterchlorid in 0,9 %iger wäßriger Kochsalzlösung im okkulären Reizwirkungstest nach Draize an acht Kaninchen auf Schleimhautverträglichkeit in der folgenden Weise geprüft.
0,1 ml der Testlösung wurden im Konjunktivalsack eines Tierauges unter Schließung von Ober- und Unterlid eingebracht. Man ließ die Lösung eine Minute lang einwirken. Das andere Auge wurde zur Kontrolle in gleicher Weise mit destilliertem Wasser behandelt.
Eine Minute nach der Applikation wurden bei der Hälfte der Tiere die behandelten Augen eine Minute lang mit '10 bis 20 ml lauwarmer physiologischer Kochsalzlösung naChgespült..Die Augen wurden anschließend bei allen behandelten Tieren geprüft.

[22] = Hydrolytic stability of aqueous solution kept boiling; type: physicochemical; settings: 5 % aqueous solution
Description: Die erfindungsgemäß vorgeschlagenen Laurinsäurecholinestersalze besitzen auch die erforderliche Stabilität und Beständigkeit. So wurde eine 5 %ige wäßrige Laurinsäurecholinesterchloridlösung 8 Stunden am Sieden gehalten. Danach wurde eine nur unwesentliche Zunahme des Säuregehalts der Trockensubstanz von 2,5 auf 3,9 % festgestellt. Demnach kann unter den Bedingungen, unter denen die erfindungsgemäß vorgeschlagenen Wirkstoffe normaler; weise als Konservierungsmittel eingesetzt werden, eine hydrolytische Spaltung des Wirkstoffes praktisch ausgeschlossen werden.

[23] = system: Bakterien, Hefen und Schimmelpilze; assay: Preservative challenge test according to USP XIX; type: cell-based; settings: 0,01 % in sterile aqueous solution; criteria of Wallhäußer for category I products, up to 28 days
Description: Als Beispiel für die erfindungsgemäß vorgesehenen Konservierungsmittel wurde Laurinsäurecholinesterchlorid einem Konservierungsbelastungstest nach der Vorschrift USP XIX unterworfen und mit bekannten Konservierungsmitteln, die in Kontaktlinsen-Pflegelösungen eingesetzt werden und dem gleichen Test unterworfen wurden, verglichen.. Die USP XIX schreibt vor, daß bei einem entsprechenden Belastungstest, bei dem man von einer Ausgangskeimzahl von […] ausgeht, ein'e Verminderung der Keimzahl innerhalb von 14 Tagen um 99,9 % bei den zugesetzten Bakterien erreicht wird und daß sich die zugesetzten Pilzsporen und Hefen innerhalb der gleichen Zeit nicht signifikant vermehren.
Um die antimikrobielle Wirkung der verschiedenen untersuchten Konservierungsmittel besser vergleichen zu können, wurden die Belastungstest bei jeweils gleicher Wirkstoffkonzentration (0,01 % in steriler wäßriger Lösung) und bei gleicher Ausgangsbelastung des jeweils eingesetzten Stammes durchgeführt. In den Tabellen 2 bis 5 sind die Keimzahlen nach jeweils 2 und 10 Minuten sowie nach 1 Stunde, 2 und 24 Stunden angegeben, in den Tabellen 6 bis 9 sind die Ergebnisse nach 1 Tag, 7, 14, 21 und 28 Tagen festgehalten, da die Keimzahlen während der weiteren Laufzeit bis zum 28. Tag bei guter Konservierung nicht mehr ansteigen dürfen.
Wie aus der Monographie von K.H. Wallhäußer, Sterilisation, Desinfektion, Konservierung, 2. […]

[24] = Hydrolysis in presence of pancreatic juice under simulated physiological conditions
Description: as §3

[25] = Pepton-Nährlösung, pH 7,0, read-out: MIC-Werte
[26] = ATCC10231, Candida albicans ATCC 10231, Pepton-Nährlösung, pH 7,0, read-out: MIC-Werte
[27] = ATCC11229, E. coli ATCC 11229, Pepton-Nährlösung, pH 7,0, read-out: MIC-Werte
[28] = Fusorium oxysporum, Pepton-Nährlösung, pH 7,0, read-out: MIC-Werte
[29] = ATCC25923, Staphylococcus aureus ATCC 25923, Pepton-Nährlösung, pH 7,0, read-out: MIC-Werte
[30] = Candida albicans, ATCC10231, pH 7, read-out: MIC-Werte
[31] = ATCC11229, pH 7, read-out: MIC-Werte
[32] = Staphylococcus aureus, ATCC25923, pH 7, read-out: MIC-Werte
[33] = Paecilomyces, pH 7, read-out: MIC-Werte

C[N+](C)(C)CCOC(=O)C12CC3CC(CC(C3)C1)C2 [Adamantylcarbonsäurecholinesterchlorid]
MIC [1, 25]: > 400 µg/mL | MIC [2, 26]: > 400 µg/mL | MIC [3, 27]: > 400 µg/mL | MIC [4, 28]: > 400 µg/mL | MIC [5, 29]: 200 µg/mL | MIC [6, 25]: 20 µg/mL | MIC [7]: > 400 µg/mL

CCCCCC(=O)OCC[N+](C)(C)C [Capronsäurecholinesterchlorid]
MIC [1, 25]: > 400 µg/mL | MIC [2, 26]: > 400 µg/mL | MIC [3, 27]: > 400 µg/mL | MIC [4, 28]: > 400 µg/mL | MIC [5, 29]: > 400 µg/mL | MIC [6, 25]: 100 µg/mL | MIC [7]: > 400 µg/mL

N=C(NCCCCCCNC(=N)NC(=N)Nc1ccc(Cl)cc1)NC(=N)Nc1ccc(Cl)cc1 [Chlorhexidin-diacetat]
MIC [1, 25]: 12.5 µg/mL (≈ 24.7 µM) | MIC ([8]; ATCC11778, Bacillus cereus ATCC 11778, Pepton-Nährlösung, pH 7,0, read-out: MIC-Werte): 0.78 µg/mL (≈ 1.54 µM) | MIC ([9]; ATCC6633, Bacillus subtilis ATCC 6633, Pepton-Nährlösung, pH 7,0, read-out: MIC-Werte): 0.78 µg/mL (≈ 1.54 µM) | MIC [2, 26]: 3.13 µg/mL (≈ 6.19 µM) | MIC [3, 27]: 3.13 µg/mL (≈ 6.19 µM) | MIC ([10]; Enterobacter aerogenes, Pepton-Nährlösung, pH 7,0, read-out: MIC-Werte): 12.5 µg/mL (≈ 24.7 µM) | MIC [4, 28]: 12.5 µg/mL (≈ 24.7 µM) | MIC ([11]; Paecilomyces Ehrlich, Pepton-Nährlösung, pH 7,0, read-out: MIC-Werte): 0.78 µg/mL (≈ 1.54 µM) | MIC ([12]; Paecilomyces variati, Pepton-Nährlösung, pH 7,0, read-out: MIC-Werte): 1.56 µg/mL (≈ 3.09 µM) | MIC [13, 25]: 50 µg/mL (≈ 98.9 µM) | MIC [5, 29]: 1.56 µg/mL (≈ 3.09 µM) | MIC ([14]; ATCC12228, Staphylococcus epidermis ATCC 12228, Pepton-Nährlösung, pH 7,0, read-out: MIC-Werte): 0.78 µg/mL (≈ 1.54 µM) | MIC [6, 25]: 0.78 µg/mL (≈ 1.54 µM)

CC(=O)OCC[N+](C)(C)C [Essigsäurecholinesterchlorid]
MIC ([1]; pH 7, read-out: MIC-Werte): > 400 µg/mL | MIC [2, 30]: > 400 µg/mL | MIC [3, 31]: > 400 µg/mL | MIC [4, 28]: > 400 µg/mL | MIC [5, 32]: > 400 µg/mL | MIC ([6]; pH 7, read-out: MIC-Werte): 100 µg/mL | MIC [7]: > 400 µg/mL

CCCCCCCC(=O)OCC(O)CO (stereo not drawn) [Glycerinmonocaprylat]
Abbauquote [15]: 13,8%

CCCCCCCCCCCC(=O)OCC[N+](C)(C)C [Laurinsäurecholinesterchlorid]
MIC ([1]; pH 7, read-out: MIC-Werte): 10 µg/mL | MIC ([8]; Bacillus cereus, ATCC11778, pH 7, read-out: MIC-Werte): 3.13 µg/mL | MIC ([9]; Bacillus subtilis, ATCC6633, pH 7, read-out: MIC-Werte): 0.78 µg/mL | MIC [2, 30]: 10 µg/mL | MIC [3, 31]: 10 µg/mL | MIC ([10]; pH 7, read-out: MIC-Werte): 100 µg/mL | MIC ([4]; pH 7, read-out: MIC-Werte): 3.13 µg/mL | MIC [11, 33]: 0.78 µg/mL | MIC [12, 33]: 0.78 µg/mL | MIC ([13]; pH 7, read-out: MIC-Werte): 200 µg/mL | MIC [16]: 2.5 µg/mL | MIC [5, 32]: 2.5 µg/mL | MIC ([14]; Staphylococcus, ATCC12228, pH 7, read-out: MIC-Werte): 0.78 µg/mL | MIC ([6]; pH 7, read-out: MIC-Werte): 0.16 µg/mL | MIC [7]: 20 µg/mL | LD50 [17]: 3150 mg/kg | Wirkungen bei subakuter oraler Toxizitätsprüfung [18]: keine Wirkungen | direkte Hautreizung (Hautreaktionen) [19]: keine Hautreakticnen | Reaktion im Kontrollbezirk (Sensibilisierung) [20]: in keinem Falle eine Reaktion | Reaktion im Sinne von Rötung, Schwellung, Sekretion oder Hornhautveränderung ([21]; 1 min): In keinem Falle kam es zu einer Reaktion | spontane Abwehrreaktionen [21]: keine spontanen Abwehrreaktionen | Säuregehalt der Trockensubstanz ([22]; after 8 hours boiling): 3,9% | Säuregehalt der Trockensubstanz ([22]; before boiling): 2,5% | Bedingungen für ausreichende Konservierung (Abfall der Keimzahl) [23]: weit übertroffen | Hydrolyse im Kontrollversuch ohne Pankreassaft ([24]; control without pancreatic juice, 38°C): keine Hydrolyse | metabolised at 1 h ([24]; pancreatic juice): 1.5% | metabolised at 24 h ([24]; pancreatic juice): 2.5%

CCCCCCCCCCCCCCCC(=O)OCC[N+](C)(C)C [Palmitinsäurecholinesterchlorid]
MIC [1, 25]: 100 µg/mL | MIC [2, 26]: 100 µg/mL | MIC [3, 27]: > 400 µg/mL | MIC [4, 28]: > 400 µg/mL | MIC [5, 29]: 2.5 µg/mL | MIC [6, 25]: 1.25 µg/mL | MIC [7]: > 400 µg/mL
